# Measured values published in US20110288125A1, “NOVEL USE OF PIPERINE” (Industry-Academic Cooperation Foundation, Yonsei University, priority 2009, published 2011).
# Entries after “also recorded” stand apart in the source; their conditions may differ.
# What was measured:
# [1] = tested on: mouse adipocytes (3T3-L1); experiment: Adipocyte differentiation inhibition, Oil Red O staining; assay type: cell-based; conditions: 14 days
# Procedure: The effect of piperine on adipocyte differentiation and growth was investigated using mouse adipocytes (3T3-L1). Preadipocytes 3T3L1 were placed on a 12-well plate and cultured to confluency in a 5% CO2 incubator at 37° C. using DMEM containing 1% penicillin-streptomycin, 1% non-essential amino acids and 10% fetal bovine serum (FBS). The cultured 3T3-L1 cells were differentiated into adipocytes by culturing for 2 days in a medium containing 0.5 mM methylisobutylxanthine/1 μM dexamethasone/1 μg/mL insulin (DMI). The cells were differentiated into mature adipocytes by further culturing for 2 days in DMEM containing 1 μg/mL insulin. Subsequently, they were further cultured for 10 days while changing DMEM every other day to obtain fully differentiated adipocytes. Starting from the day when DMI was added to the 3T3-L1 cells, piperine was treated at concentrations of 0.1, 1, 10, 50 and 100 μM every other day. Piperine was purchased from Sigma and used after being dissolved in DMSO. For negative control, only DMSO was used. After the culturing for a total of 14 days, when the cells were fully differentiated, the medium was removed and the fats contained in the differentiated adipocytes were stained. […] To measure the triglyceride level of the differentiated 3T3-L1 cells, the stained cells were dissolved in 1 mL of isobutanol and OD value was measured at 600 nm.
# C57BL/6J mice = experiment: Body weight, food efficiency and abdominal fat-pad weights in mice on high-fat diet; assay type: in vivo, mouse; conditions: 10 weeks
# Procedure: The high-fat diet (HFD, 40% fat calorie, 17 g lard+3% corn oil/100 g diet) was used to induce obesity and piperine-containing diet had the same composition as the HFD except for containing 0.05% piperine. Normal diet (ND) was prepared according to AIN-76 rodent diet (see Table 1). [table] 5-week-old male C57BL/6J mice were accustomed to the laboratory environment for a week while feeding solid feed. […] Diet was provided between 10 and 11 a.m. every day along with water. Diet intake was measured every day, and body weight was measured every 3 days. In order to avoid transient body weight increase due to feed intake, body weight was measured 2 hours after removing the feedbox. […] In addition, food efficiency ratio (FER) was calculated by dividing accumulated body weight gain during test period into total diet uptake from the first day of test diet to sacrifice day. […] Further, regarding accumulation of abdominal fat, after fasting the test animal for at least 12 hours and anesthetizing with diethyl ether, blood, liver and abdominal fat tissues (epididymal, perirenal, mesenteric and retroperitoneal fat) were taken and weighed after washing with 0.1 M PBS (pH 7.4).
# Swiss albino mice = conditions: piperine 100 mg/kg once a day for 4 weeks before benzo[α]pyrene 50 mg/kg twice a week for 16 weeks; cited from earlier work
# [2] = 0.05% piperine in HFD, per unit body weight, FIG. 4
smiles,measurement,setting,value
O=C(/C=C/C=C/c1ccc2c(c1)OCO2)N1CCCCC1 [piperine],concentration at which differentiation of preadipocytes 3T3-L1 was decreased in a concentration-dependent manner,"[1]; piperine 0.1, 1, 10, 50 and 100 μM every other day, vs DMSO, FIG. 1A",≥ 10 µM
same,amount of intracellular fat (OD value at 600 nm of fats stained with Oil Red O),"[1]; piperine 0.1-100 μM, stain dissolved in isobutanol, FIG. 1B",concentration-dependently reduced the amount of intracellular fat; also recorded: decrease in OD value in a concentration-dependent manner
same,decrease in body weight gain (accumulated) compared to high-fat diet control group,"C57BL/6J mice; 0.05% piperine in HFD, FIG. 2",68%
same,decrease in final body weight compared to high-fat diet control group,"C57BL/6J mice; 0.05% piperine in HFD, FIG. 2",40%
same,daily food intake compared to high-fat diet control group,"C57BL/6J mice; 0.05% piperine in HFD, FIG. 3",reduced; also recorded: significant decrease
same,reduction of food efficiency ratio (FER) compared to high-fat diet control group,"C57BL/6J mice; 0.05% piperine in HFD, body weight gain / total diet intake, FIG. 3",64%
same,reduction of epididymal fat-pad weight compared to high-fat diet control group,C57BL/6J mice; [2],63%
same,reduction of mesenteric fat-pad weight compared to high-fat diet control group,C57BL/6J mice; [2],68%
same,reduction of perirenal fat-pad weight compared to high-fat diet control group,C57BL/6J mice; [2],85%
same,reduction of retroperitoneal fat-pad weight compared to high-fat diet control group,C57BL/6J mice; [2],63%
same,reduction of total abdominal (visceral) fat-pad weights compared to high-fat diet control group,C57BL/6J mice; [2],66%
same,"feed efficiency compared to control group (HFD), in words",C57BL/6J mice; piperine-supplemented diet,reduced
same,"antioxidant indicators (SOD, CAT, GPX, GSH, vitamin E, vitamin C) in the tissues",Swiss albino mice,significantly high values
